In paper PMC2009384, “The carcinogenicity of polycyclic hydrocarbon epoxides in newborn mice” (British Journal of Cancer, 1975):

Test system: newborn Swiss mice
Experiment: Experiment II: carcinogenicity in newborn mice, chrysene, 7-methylbenz(a)anthracene and K region epoxides (s.c. injection, tumour incidence to 70-75 weeks)
Conditions: for liver tumour incidence: 3 x 100 µg s.c., newborn; for No. of mice examined at p.m. at termination of experiment (70-75th week) with liver tumours / No. of mice examined at p.m. at termination of experiment (70-75th week) with multiple liver tumours / No. of mice examined at p.m. at termination of experiment (70-75th week) with multiple lung tumours / No. of mice examined at p.m. at termination of experiment (70-75th week) with other tumours / No. of mice examined at p.m. from 50-70th week with liver tumours / No. of mice examined at p.m. from 50-70th week with lung tumours / No. of mice examined at p.m. from 50-70th week with other tumours / No. of survivors at 50 weeks / No. of survivors at 70 weeks / No. of mice examined at p.m. at termination of experiment (70-75th week) with lung tumours: 100 µg per treatment; for No. of mice examined at p.m. at termination of experiment (70-75th week) with liver tumours / No. of mice examined at p.m. at termination of experiment (70-75th week) with multiple liver tumours / No. of mice examined at p.m. at termination of experiment (70-75th week) with multiple lung tumours / No. of mice examined at p.m. at termination of experiment (70-75th week) with other tumours / No. of mice examined at p.m. from 50-70th week with liver tumours / No. of mice examined at p.m. from 50-70th week with lung tumours / No. of mice examined at p.m. from 50-70th week with other tumours / No. of mice examined at p.m. at termination of experiment (70-75th week) with lung tumours: 3 treatments; for No. of survivors at 50 weeks / No. of survivors at 70 weeks: 3 treatments (Days 0, 1 and 2) s.c. in PEG 400
Description: Br. J. Cancer (1975) 31, 182 THE CARCINOGENICITY OF POLYCYCLIC HYDROCARBON EPOXIDES IN NEWBORN MICE P. L. GROVER, P. SIMS, B. C. V. MITCHLEY AND F. J. C. ROE From the Chester Beatty Research Institute, Institute of Cancer Research, Royal Cancer Hospital, Fulham Road, London, SW3 6JB Received 9 August 1974. […] THE HYPOTHESIS that the carcino- genicity of polycyclic hydrocarbons is associated with the formation of epoxide metabolites (Grover, Hewer and Sims, 1971, 1972; Keysell et al., 1973) is sup- ported by some experimental evidence but remains unproven. […] The epoxides can also act as alkylating agents (Grover and Sims, 1970) and as mutagens (Ames, Sims and Grover, 1972; Huberman et al., 1971; Cookson, Sims and Grover, 1971; Fahmy and Fahmy, 1973). […] The newborn mouse, which is susceptible to carcinogenic polycyclic hydrocarbons (Roe, Rowson and Salaman, 1961; Roe, Mitchley and Walters, 1963; Walters and Roe, 1964, 1966) can be considered as a convenient source of several types of rapidly dividing cells. Consequently we have tested the K region epoxides derived from phenanthrene, benz(a)anthracene, 7-methylbenz(a)anthracene, dibenz(a,h)- anthracene, chrysene and 3-methylchol- anthrene, together with some of the CARCINOGENICITY OF POLYCYCLIC HYDROCARBON EPOXIDES IN MICE 183 parent hydrocarbons, for carcinogenicity using newborn mice. This paper presents the results that were obtained in these experiments. MATERIALS AND METHODS The polycyclic hydrocarbon epoxides, phenanthrene 9,10-oxide, benz(a)anthracene 5,6-oxide, 7-methylbenz(a)anthracene 5,6- oxide, dibenz(a,h)anthracene 5,6-oxide, chry- sene 5,6-oxide and 3-methylcholanthrene 11,12-oxide were prepared from the parent hydrocarbons (Newman and Blum, 1964; Boyland and Sims, 1965; Sims 1966). Two experiments were undertaken fol- lowing similar protocols. For each experi- ment Swiss mice from a specific pathogen- free colony were time mated so as to produce a large number of litters over the course of 2 or 3 days. […] Test compounds were suspended in poly- ethylene glycol (PEG) 400 and injections of 0-02 ml of the suspension were given by introducing a 25 gauge hypodermic needle through the skin near the root of the tail and threading it subcutaneously to deliver the injected material in the interscapular region. Injections were given to every mouse on the first day or first 3 days of life. The details of treatments and numbers of mice of each sex in each group are shown in Table I (Experiment I) and Table II (Ex- periment II). Surviving mice were weaned when they w ere 21 days old. Thereafter, males and females w ere separated and housed 6 per cage in metal boxes. A mixture of sawdust and wood shavings was used as bedding. The mice were fed on a standard cubed diet (Formulation 86 from C. Holdman and Sons (Plow co Feeds), Byers Lane, South Godstone, Surrey) and water was given ad libitum. Mice were inspected daily, and at weekly intervals they were weighed and palpated for tumours and other lesions. […] The experiment was terminated when surviving mice were between 70 and 75 weeks old. A full routine post- mortem examination, which included disten- sion of the urinary bladder with fixative, was carried out. The number of lesions thought to be neoplasms and the size of the largest such lesion in each organ affected were recorded. All tissues with suspected neoplasms were fixed in Bouin's solution. Haematoxylin and eosin stained 5 µm paraffin wax sections were prepared and examined microscopically. RESULTS The results of the two experiments in terms of tumour incidence are sum- marized in […].

Compound | liver tumour incidence | No. of mice examined at p.m. at termination of experiment (70-75th week) with liver tumours (females) | No. of mice examined at p.m. at termination of experiment (70-75th week) with multiple liver tumours (females) | No. of mice examined at p.m. at termination of experiment (70-75th week) with multiple lung tumours (females) | No. of mice examined at p.m. at termination of experiment (70-75th week) with other tumours (females) | No. of mice examined at p.m. from 50-70th week with liver tumours (females) | No. of mice examined at p.m. from 50-70th week with lung tumours (females) | No. of mice examined at p.m. from 50-70th week with other tumours (females) | No. of survivors at 50 weeks (females) | No. of survivors at 70 weeks (females) | No. of mice examined at p.m. at termination of experiment (70-75th week) with liver tumours (males) | No. of mice examined at p.m. at termination of experiment (70-75th week) with lung tumours (males) | No. of mice examined at p.m. at termination of experiment (70-75th week) with multiple liver tumours (males) | No. of mice examined at p.m. at termination of experiment (70-75th week) with multiple lung tumours (males) | No. of mice examined at p.m. at termination of experiment (70-75th week) with other tumours (males) | No. of mice examined at p.m. from 50-70th week with liver tumours (males) | No. of mice examined at p.m. from 50-70th week with lung tumours (males) | No. of mice examined at p.m. from 50-70th week with other tumours (males) | No. of survivors at 50 weeks (males) | No. of survivors at 70 weeks (males) | also measured
c1ccc2c(c1)-c1ccc3ccccc3c1C1OC21 (centres unmarked) [Chrysene 5,6-oxide] | increased | 1 | 0 | 0 | 0 | 0 | 0 | 0 | 22 | 20 | 8 | 0 | 3 | 0 | 0 | 0 | 0 | 0 | 23 | 21 | 
c1ccc2c(c1)-c1ccccc1C1OC21 (centres unmarked) [phenanthrene 9,10-oxide] |  | 2 | 1 | 0 | 0 | 0 | 0 | 0 | 13 | 13 | 4 | 2 | 1 | 1 | 0 | 0 | 0 | 0 | 19 | 17 | No. of mice examined at p.m. at termination of experiment (70-75th week) with lung tumours (females): 0; effect on the incidence of liver, lung or other tumours (in the doses tested (3 x 100 µg or 1 x 60 µg)): no effect
c1ccc2c(c1)ccc1c3ccccc3ccc21 [Chrysene, reference compound] | increased | 0 | 0 | 0 | 0 | 0 | 0 | 0 | 22 | 21 | 13 | 1 | 6 | 1 | 0 | 0 | 0 | 0 | 28 | 27 | No. of mice examined at p.m. at termination of experiment (70-75th week) with lung tumours (females): 0
